Source: patent publication US20220000807A1, “METHODS AND APPARATUS FOR TREATING A WOUND” (Chang Gung Memorial Hospital, Linkou, priority 2018, published 2022)

What was measured:
[1] = system: severe, relapsing paronychia and pyogenic granuloma-like lesion on left thumb (induced by afatinib); assay: Topical treatment of a patient with afatinib-induced paronychia and pyogenic granuloma-like lesion; assay type: in vivo, human; details: one patient; for improvement of paronychia and pyogenic granuloma-like lesion with previous topical treatment: previous treatment with all three agents, FIG. 1A
Text: They were subsequently treated with topical 0.25% betaxolol drops once daily (Alcon Laboratories, USA) for 4 weeks under occlusion.

back incisions of rats = assay: In vivo rat back incision wound healing study; details: for microscopic changes of the 1 cm×1 cm back wound: Day 10, 10 days of drops twice a day (0.25% betaxolol, 0.5% Timoptol), FIG. 4A-4C
Method: An in vivo study was performed to examine the effectiveness of a non-selective β blocker and a β1-blocker using rats. The rats were divided into 3 groups: (a) control (n=2); (b) non-selective […] blocker (n=1); and (c) β1-blocker (n=1). On Day 0 of the experiment, 3 back incisions were made on each rat. The size of the back incisions are 1.5 cm×1.5 cm, 1 cm×1 cm and 0.5 cm×0.5 cm for the top, middle and bottom incisions as shown on FIG. 4A.
The rats in the control group received no treatment, the rat in the non-selective β blocker group received 0.5% Timoptol drop (MSD, USA) twice a day (30 μl for the top incision, 13 μl for the middle incision and 3.3 μl for the bottom incision) and the rat in the β1-blocker group received 0.25% Betoptic drop (Alcon Laboratories, USA) twice a day (30 μl for the top incision, 13 μl for the middle incision and 3.3 μl for the bottom incision).

[2] = system: deep fissure over palms or soles induced by EGFR inhibitors; details: 10 patients; topical 0.25% drops once a day; FIG. 2A, 2B
Method: 10 patients with deep fissure over palms or soles induced by EGFR inhibitors were treated with topical 0.25% betaxolol drops (Alcon Laboratories, USA) once a day.

Row | Compound | improvement of paronychia and pyogenic granuloma-like lesion with previous topical treatment [1] | microscopic changes of the 1 cm×1 cm back wound (back incisions of rats) | also measured
1 | CCCCC(=O)O[C@]1(C(=O)CO)[C@@H](C)C[C@H]2[C@@H]3CCC4=CC(=O)C=C[C@]4(C)[C@@]3(F)[C@@H](O)C[C@@]21C [betamethasone valerate] | without any improvement | – | –
2 | O=[N+]([O-])[O-].[Ag+] [silver nitrate] | without any improvement | – | –
3 | CC(C)(C)NC[C@H](O)COc1nsnc1N1CCOCC1.O=C(O)/C=C\C(=O)O [Timoptol] | – | incompletely healing, characterized with incomplete re-epithelization of the epidermis, less fibroblast activity and evidence of debri | –
4 | CC(C)NCC(O)COc1ccc(CCOCC2CC2)cc1 (centres unmarked) [betaxolol] | – | almost completely healed with re-growth of fibroblasts, complete re-epithelization of epidermis, and no evidence of debri | appearance of back incisions (erythema, size) (back incisions of rats; 0.25% drop twice a day, after 7 days of treatment, compared to 0.5% Timoptol drops and no treatment, FIG. 3C-3E): less erythematous and smaller in size; deep fissure wound healing [2]: healed within one week of treatment in all of the 10 patients; resolution of paronychia and pyogenic granuloma-like lesion ([1]; topical 0.25% drops once daily for 4 weeks under occlusion, FIG. 1B): complete resolution of paronychia and pyogenic granuloma-like lesion
5 | gentamicin sulfate | without any improvement | – | –
